Laboratory results taken from the CheMixHub ionic liquid set.

Assay: xn = mol fraction of the nth substance listed

Cc1ccccc1 + CCCCCCCC[n+]1ccc2ccccc2c1.O=S(=O)([N-]S(=O)(=O)C(F)(F)F)C(F)(F)F
Conditions	viscosity [mPa·s]
308.15 K, 101 kPa, x1 = 1	0.5

CCCCCCCCCCCCCCCC[N+](C)(C)C.[Br-] + OC1OC[C@@H](O)[C@H](O)[C@H]1O + O
viscosity [mPa·s], 100 kPa
Conditions	298.15 K	308.15 K	318.15 K
x1 = 7.21e-06, x2 = 0	0.896	0.742	0.617
x1 = 1.442e-05, x2 = 0	0.898	0.744	0.617
x1 = 2.162e-05, x2 = 0	0.9	0.745	0.617

CCCCCCCCCCCCCCCC[n+]1ccccc1.[Cl-] + O
Conditions	electrical conductivity [S/m]
293.15 K, 100 kPa, x1 = 3.6e-06	0.0028
293.15 K, 100 kPa, x1 = 7.21e-06	0.005
293.15 K, 100 kPa, x1 = 1.442e-05	0.0091
298.15 K, 100 kPa, x1 = 3.6e-06	0.0028
298.15 K, 100 kPa, x1 = 7.21e-06	0.0051
298.15 K, 100 kPa, x1 = 1.081e-05	0.0076
298.15 K, 100 kPa, x1 = 1.442e-05	0.0098
298.15 K, 100 kPa, x1 = 9.009e-05	0.02
303.15 K, 100 kPa, x1 = 3.6e-06	0.003
303.15 K, 100 kPa, x1 = 7.21e-06	0.0057
303.15 K, 100 kPa, x1 = 1.081e-05	0.0083
303.15 K, 100 kPa, x1 = 9.009e-05	0.021
308.15 K, 100 kPa, x1 = 3.6e-06	0.0034
308.15 K, 100 kPa, x1 = 7.21e-06	0.0065
308.15 K, 100 kPa, x1 = 1.081e-05	0.0095
308.15 K, 101 kPa, x1 = 5.4e-07	0.000222
308.15 K, 101 kPa, x1 = 9e-07	0.00029
308.15 K, 101 kPa, x1 = 1.62e-06	0.0004
308.15 K, 101 kPa, x1 = 2.34e-06	0.000465
308.15 K, 101 kPa, x1 = 2.88e-06	0.000581
308.15 K, 101 kPa, x1 = 3.78e-06	0.000705
308.15 K, 101 kPa, x1 = 4.5e-06	0.000794
308.15 K, 101 kPa, x1 = 5.59e-06	0.000937
308.15 K, 101 kPa, x1 = 6.85e-06	0.00106
308.15 K, 101 kPa, x1 = 7.93e-06	0.001222
308.15 K, 101 kPa, x1 = 9.01e-06	0.001438
308.15 K, 101 kPa, x1 = 1.009e-05	0.00159
308.15 K, 101 kPa, x1 = 1.117e-05	0.001701
308.15 K, 101 kPa, x1 = 1.333e-05	0.00209
308.15 K, 101 kPa, x1 = 1.55e-05	0.00219
308.15 K, 101 kPa, x1 = 1.766e-05	0.00237
308.15 K, 101 kPa, x1 = 1.982e-05	0.00248
308.15 K, 101 kPa, x1 = 2.18e-05	0.00259
308.15 K, 101 kPa, x1 = 2.397e-05	0.00264
308.15 K, 101 kPa, x1 = 2.595e-05	0.00278
308.15 K, 101 kPa, x1 = 3.009e-05	0.00297
308.15 K, 101 kPa, x1 = 3.406e-05	0.00314
308.15 K, 101 kPa, x1 = 3.802e-05	0.00328
308.15 K, 101 kPa, x1 = 4.18e-05	0.00342
308.15 K, 101 kPa, x1 = 4.559e-05	0.00356
308.15 K, 101 kPa, x1 = 4.919e-05	0.00369
308.15 K, 101 kPa, x1 = 5.099e-05	0.00375
308.15 K, 101 kPa, x1 = 6e-05	0.00403
308.15 K, 101 kPa, x1 = 6.847e-05	0.00432
308.15 K, 101 kPa, x1 = 7.658e-05	0.00454
308.15 K, 101 kPa, x1 = 8.433e-05	0.00477
308.15 K, 101 kPa, x1 = 9.189e-05	0.00497
308.15 K, 101 kPa, x1 = 9.91e-05	0.00516
308.15 K, 101 kPa, x1 = 0.000106	0.00533
308.15 K, 101 kPa, x1 = 0.0001126	0.0055
313.15 K, 100 kPa, x1 = 9.009e-05	0.023

CCCCCC[n+]1ccn(C)c1.N#C[S-] + [Br-].[Li+] + CN1CCCC1=O
298.15 K, 101 kPa
Conditions	viscosity [mPa·s]
x1 = 0.001485, x2 = 0.05195	3.247
x1 = 0.00149, x2 = 0.02731	2.398
x1 = 0.001549, x2 = 0.07614	4.405
x1 = 0.003034, x2 = 0.02727	2.411
x1 = 0.003327, x2 = 0.07601	4.433
x1 = 0.003386, x2 = 0.05185	3.276
x1 = 0.004842, x2 = 0.05177	3.304
x1 = 0.004935, x2 = 0.02722	2.44
x1 = 0.004954, x2 = 0.07588	4.462
x1 = 0.005883, x2 = 0.02719	2.46
x1 = 0.006254, x2 = 0.0517	3.332
x1 = 0.006429, x2 = 0.07577	4.49
x1 = 0.007608, x2 = 0.02715	2.485
x1 = 0.007678, x2 = 0.07567	4.518
x1 = 0.007769, x2 = 0.05162	3.36
x1 = 0.009204, x2 = 0.07556	4.575
x1 = 0.009231, x2 = 0.05154	3.388
x1 = 0.009463, x2 = 0.0271	2.489
x1 = 0.009859, x2 = 0.05151	3.416
x1 = 0.01038, x2 = 0.02707	2.534
x1 = 0.01063, x2 = 0.07545	4.603
x1 = 0.01211, x2 = 0.02702	2.541
x1 = 0.01221, x2 = 0.07533	4.631
x1 = 0.01242, x2 = 0.05138	3.444

c1ccsc1 + N#C[C-](C#N)C#N.OCCC[n+]1ccccc1
101 kPa, x2 = 0
Conditions	viscosity [mPa·s]
293.15 K	0.653
298.15 K	0.615
303.15 K	0.58
308.15 K	0.545
313.15 K	0.518
318.15 K	0.491
323.15 K	0.464
328.15 K	0.441
333.15 K	0.42
338.15 K	0.4
343.15 K	0.382
348.15 K	0.364

CCCCCCCCCCCCOS(=O)(=O)[O-].[Na+] + CC(C)O + O
298 K, 100 kPa, frequency 0.001 MHz
Conditions	electrical conductivity [S/m]
x2 = 0.04868, x3 = 0.9512	0.0308
x2 = 0.1358, x3 = 0.8641	0.0155

CCCC[n+]1ccc(C)cc1.F[B-](F)(F)F + O
298.15 K, 101 kPa
Conditions	electrical conductivity [S/m]
x1 = 0.0002198	0.131
x1 = 0.0004197	0.206
x1 = 0.0007725	0.357
x1 = 0.001123	0.486
x1 = 0.001267	0.554
x1 = 0.001481	0.638
x1 = 0.00182	0.757
x1 = 0.00217	0.871
x1 = 0.002506	0.979
x1 = 0.002721	1.01
x1 = 0.002887	1.07
x1 = 0.003188	1.19
x1 = 0.003487	1.27
x1 = 0.003843	1.36
x1 = 0.004144	1.44
x1 = 0.004481	1.52

c1ccsc1 + N#C[C-](C#N)C#N.OCC[n+]1ccccc1
101 kPa, x2 = 0
Conditions	viscosity [mPa·s]
303.15 K	0.58
333.15 K	0.42
348.15 K	0.364

C[P+](c1ccccc1)(c1ccccc1)c1ccccc1.[Br-] + OCCO
Conditions	viscosity [mPa·s]
298.15 K, 100 kPa, x1 = 0.1	35
298.2 K, 101 kPa, x1 = 0.2	121
303.15 K, 100 kPa, x1 = 0.33	116.5
303.15 K, 100 kPa, x2 = 0.8333	56.5
303.15 K, 100 kPa, x2 = 0.9091	30.5
303.15 K, 100 kPa, x2 = 0.9756	17.6
313.15 K, 100 kPa, x1 = 0.1	18.24
313.15 K, 100 kPa, x1 = 0.33	65.5
313.15 K, 100 kPa, x2 = 0.9756	13
323.15 K, 100 kPa, x2 = 0.9756	9.5
323.15 K, 101 kPa, x1 = 0.25	31.72
333.15 K, 100 kPa, x2 = 0.9756	7.5
343.15 K, 100 kPa, x2 = 0.9756	6
353.15 K, 100 kPa, x2 = 0.9756	5.1

CC[NH3+].O=[N+]([O-])[O-] + CC[NH2+]CC.O=[N+]([O-])[O-]
Conditions	electrical conductivity [S/m]
323.15 K, 101 kPa, frequency 0.00293 MHz, x2 = 0	4.22

101 kPa, x2 = 0
Conditions	viscosity [mPa·s]
323.15 K	17.6
333.15 K	13.8

C[N+](C)(C)CCC[N+]1(C)CCCCC1.N#C[N-]C#N.N#C[N-]C#N + CCO
viscosity [mPa·s], 100 kPa
Conditions	x1 = 0.0999	x1 = 0.2001	x1 = 0.3002	x1 = 0.3999	x1 = 0.5002	x1 = 0.6001	x1 = 0.7003	x1 = 0.7998	x1 = 0.8995	x1 = 1
293.15 K	6.82	19.7	47.6	115	280	596	1088	1716	2737	4503
303.15 K	5.39	15	33	73.3	164	330	545	830	1240	1837
313.15 K	4.38	11.6	24.1	49.6	106	211	310	461	624	860
323.15 K	3.68	9.19	18.1	35.2	70.5	132	192	267	360	460
333.15 K	3.18	7.55	14.1	26.2	50.7	85.9	126	171	219	270

CCCC[n+]1ccccc1.N#C[N-]C#N + O
100 kPa
Conditions	electrical conductivity [S/m]	viscosity [mPa·s]
298.15 K, x1 = 0.9563	–	30.06
298.15 K, x1 = 0.9642	0.931	–
303.15 K, x1 = 0.9189	1.17	–
303.15 K, x1 = 0.9338	1.14	–
303.15 K, x1 = 0.9488	1.12	–
303.15 K, x1 = 0.9563	–	24.67
313.15 K, x1 = 0.926	–	16.69
313.15 K, x1 = 0.9563	–	17.57
313.15 K, x1 = 0.9642	1.54	–
318.15 K, x1 = 0.926	–	14.38
318.15 K, x1 = 0.9338	1.89	–
318.15 K, x1 = 0.9722	–	15.54
323.15 K, x1 = 0.9563	–	12.69
323.15 K, x2 = 0.01155	–	13.56
328.15 K, x1 = 0.926	–	10.62
328.15 K, x1 = 0.9412	–	10.83
333.15 K, x1 = 0.9488	2.75	–
333.15 K, x1 = 0.9563	–	9.77
333.15 K, x1 = 0.9642	2.7	–
338.15 K, x1 = 0.9412	–	8.47
